Patent publication US9283277B2, “Methods and compositions for the treatment of obesity” (Children's Medical Center Corporation, priority 2008, dated 2016)

Legend:
[1] = test system: PERK (Thr980) phosphorylation; assay: Hypothalamic PERK (Thr980) phosphorylation in ob/ob mice; format: in vivo; details: vs vehicle
Protocol: Nine-week old lean wt and ob/ob mice were orally treated with either PBA (1 g/kg/day) or vehicle (VEH) for 26 days and PERK (Thr980) phosphorylation is examined in the hypothalamus extracts with direct immunoblotting. (B) Ten week-old wt lean and ob/ob mice were intraperitoneally injected with leptin (0.1 mg/kg) after six-hour starvation. Hypothalami were removed 30 minutes after the injections, and pStat3^Tyr705 and total Stat3 levels were examined. (C) Nine-week old lean wt and ob/ob mice were orally treated with PBA (1 g/kg/day) for 10 days. Following the pretreatment period, leptin-deficient ob/ob mice were either administered with VEH or with different doses of leptin through the intraperitoneal route. […]
(a) Hypothalamic PERK phosphorylation (Thr980) after 21 days of vehicle or TUDCA (150 mg/kg/day) treatment. […] Error bars are ±S.E.M., P values are determined by Student's t-test. […]
If the postulate that reduction of ER stress in the hypothalamus increases leptin sensitivity is true, chemical chaperones other than PBA should also create the same effect and sensitize the obese mice to leptin. […] For this purpose we treated ob/ob mice either with vehicle or TUDCA (150 mg/kg/day) for a period of 21 days and analyzed the hypothalamic PERK phosphorylation. […]

C57BL/6 wt-lean mice = assay: TUDCA and leptin co-treatment in C57BL/6 wt-lean mice; format: in vivo; details: leptin 1 mg/kg/day, TUDCA 150 mg/kg/day, 30 days
Protocol: Following an initial acclimation period, eight week-old wt lean mice were treated with vehicle (VEH), Leptin (1 mg/kg/day) (L), TUDCA (150 mg/kg/day) (TUD) or leptin and TUDCA together for a period of 30 days. (a) Bodyweight (g), (b) % decrease in bodyweight, (c) Daily food intake (g) of the wt mice treated with VEH, LEP, TUD and TUD+LEP during the experimental period (n=4 in each group). Error bars are ±S.E.M., P values are determined by Student's t-test (*p<0.05, **p<0.01, ***p<0.001).
If the postulate that reduction of ER stress in the hypothalamus increases leptin sensitivity is true, chemical chaperones other than PBA should also create the same effect and sensitize the obese mice to leptin. TUDCA is a hydrophilic bile acid, which has a completely different structure than PBA, but has chemical chaperone activity in common^25. First, we investigated whether TUDCA can reduce ER stress in the hypothalamus of the ob/ob mice. For this purpose we treated ob/ob mice either with vehicle or TUDCA (150 mg/kg/day) for a period of 21 days and analyzed the hypothalamic PERK phosphorylation. […] To address this question we first pretreated the ob/ob mice with TUDCA (150 mg/kg/day) for 5 days and subsequently initiated leptin (1 mg/kg) treatment. […] Body weight of the ob/ob mice decreased further with leptin and TUDCA co-treatment and reached to 34.39±1.30 g from 50.55±1.14 g (Lep vs. TUD+Lep, p<0.001). […] Furthermore, to investigate the metabolic homeostasis in more detail, we placed the mice in metabolic cages. […] Heat generation was the same between the groups (FIG. 5j). Next, we analyzed the whole body fat composition by DEXA scan. […] Finally, analysis of lean mass has shown that none of the treatments lead to a significant change in this parameter ([…]). We additionally investigated the effect of TUDCA and leptin co-treatment on C57BL/6 wt-lean mice.

O=C(O)CCCc1ccccc1 [PBA, 4-phenyl butyric acid]
PERK (Thr980) phosphorylation in hypothalamus ([1]; PBA 1 g/kg/day orally, 26 days): significantly reduced

C[C@H](CCC(=O)NCCS(=O)(=O)O)[C@H]1CC[C@H]2[C@@H]3[C@@H](O)C[C@@H]4C[C@H](O)CC[C@]4(C)[C@H]3CC[C@]12C [TUDCA, tauroursodeoxycholic acid]
body weight (C57BL/6 wt-lean mice): did not observe any significant changes | food intake (C57BL/6 wt-lean mice): did not observe any significant changes | hypothalamic PERK phosphorylation (PERK activity) ([1]; TUDCA 150 mg/kg/day, 21 days): down regulated

leptin: adipocyte-derived hormone that suppresses appetite
body weight (C57BL/6 wt-lean mice): did not observe any significant changes | food intake (C57BL/6 wt-lean mice): did not observe any significant changes
